We go through five molecules from patent US12280051B2, “Pharmaceutical composition for topical wound treatment” (CONSEJO NACIONAL DE INVESTIGACIONES CIENTIFICAS Y TECNICAS, priority 2021, dated 2025).

Data set [1] has as its system Intercellular adhesion molecule-1 (ICAM-1). The following applies: cited from earlier work.
The nature of data set [2]: Chelating capacity: remaining Zinc (unchelated). In kind it is physicochemical. The following applies: pH 7.0; EDTA at all concentrations tested; combination of Zinc, Calcium and Magnesium. The protocol:
The following solutions were prepared in Mixing solvent (MS) at pH 7.0. All solutions were supplemented with ZnCl2 (1 ppm), CaCl2 (100 ppm) and MgCl2 (25 ppm). The concentrations of Zn, Ca and Mg used here, were close to those typically found in exudates from chronic wounds. The pH chosen for the reaction (7.0) would result from the combination of compositions of present invention (pH 5.5) and the exudate from a chronic wound (pH 8.5). Prepared solutions were: EDTA (0.25, 0.50 and 0.75 mg/mL) as indicated in example 1; M0, M13, […] were elaborated according to examples 18 to 21. and LAPS deproteinized: Over a LAPS 24 h sample obtained according to example 1, a deproteinization process was performed using reagents and indications of the commercial kit employed. Measurement of remaining Zinc (unchelated) in the prepared solutions: A commercial Zinc measurement kit (Randox Lab) was used. This is a colorimetric method based on the reaction of Zinc with Dimethylglyoxime and Salicylaldoxin at alkaline pH, giving a colored complex photocolorimetrically measurable at 560 nm. For the determination of Zinc in LAPS, a previous deproteinization step was necessary. Therefore, equal parts of LAPS and deproteinizing reagent (Trichloroacetic Acid 370 mmol/L) were mixed in conical tubes, homogenized and centrifuged for 10 min at 10,000×g. The supernatant was used for the test.

Data set [3] is described as follows: Chelating capacity: remaining Calcium (unchelated). In kind it is physicochemical. The following applies: pH 7.0. How it is done: The following solutions were prepared in Mixing solvent (MS) at pH 7.0. All solutions were supplemented with ZnCl2 (1 ppm), CaCl2 (100 ppm) and MgCl2 (25 ppm). The concentrations of Zn, Ca and Mg used here, were close to those typically found in exudates from chronic wounds. The pH chosen for the reaction (7.0) would result from the combination of compositions of present invention (pH 5.5) and the exudate from a chronic wound (pH 8.5). Prepared solutions were: EDTA (0.25, 0.50 and 0.75 mg/mL) as indicated in example 1; M0, M13, […] were elaborated according to examples 18 to 21. and LAPS deproteinized: Over a LAPS 24 h sample obtained according to example 1, a deproteinization process was performed using reagents and indications of the commercial kit employed. Measurement of remaining Calcium (unchelated) in the prepared solutions: A commercial Calcium measurement kit (Wiener Lab) was used. This is a colorimetric method based on the reaction of calcium with o-cresolphthalein complexone (o-CPC) at alkaline pH, giving a photocolorimetrically measurable magenta complex at 570 nm.

Data set [4] has as its system VEGF. As to the kind of experiment: VEGF expression in keratinocytes HaCaT (real-time PCR). In kind it is cell-based, human. The following applies: Ethosuximide 3.0 mg/mL, 24 hours, FIG. 19. How it is done: (§1) Cell lines were grown and maintained following the protocols of the American Type Culture Collection (ATCC, Rockville, MD, USA), using Minimum Essential Medium (MEM), Fetal Bovine Serum (FBS), L-glutamine.
(§2) To evaluate the expression of the VEGF genes, the following cell lines were used: • a. Murine macrophage cell line J774 (ATCC), stimulated with 25 ng/mL of lipopolysaccharides (LPS) from E. coli (L-8274, Sigma). • b. Adult human skin keratinocytes cell line HaCaT(ATCC).
(§3) Cells were plated for 24 hours with Ethosuximide at different concentrations to evaluate their effect on gene expression.
(§4) Monolayers of the J774 Macrophage cell lines and HaCaT Keratinocytes were used, until confluent cells were obtained, which were stimulated with Ethosuximide at 0.5 and 3.0 mg/mL as indicated in example 1, in 12-well plates, at a final volume of 300 μL/well. For the J774 macrophage line, all treatments were supplemented with LPS (25 ng/mL), using MEM 1× with LPS (25 ng/mL) as control (Control+LPS). HaCaT keratinocytes were treated with the concentrations of ethosuximide in MEM with 10% FBS, using 1× MEM as a control. […]
(§5) Levels of VEGF and GAPDH mRNA were measured in triplicate for each sample using the StepOnePlus Real-Time PCR Systems (Applied Biosystems) and the Power Up SYBR Green Master Mix (ROCHE) kit. […] Group means were determined and normalized to the MEM group for each experiment.
For orientation: Quantitative PCR measures a nucleic acid by following its amplification.

For data set [5], the system named is chicken chorioallantoic membrane. The data set is described as follows: Chicken Chorioallantoic Membrane Assay (CAM), angiogenesis. In kind it is in vivo. The following applies: 300 μl onto the chorioallantoic membrane; 24 and 48 hours; ethosuximide solutions 0.5 and 3.0 mg/mL; FIG. 18. An excerpt:
Angiogenesis is a complex biological process involving the generation of new blood vessels from the pre-existing vasculature. The process involves the cooperation of several different cell types, and in particular involves proliferation, survival, and tissue invasion by activated endothelial cells. Most investigations of angiogenesis include at least one in vivo study. The Chicken Chorioallantoic Membrane Assay (CAM) is suitable for a variety of applications. In this assay, the angiogenic properties of different concentrations of ethosuximide and lactic acid and the mixtures were tested.
Eggs commercial lines with a weight between 30-90 g were used. By using an ovoscope the viability of the chorioallantoic membrane was determined to select only fertilized and viable eggs. […]
Then, 300 μl of the following solutions were slowly placed onto the chorioallantoic membrane: Ethosuximide 3.0 mg/mL; Ethosuximide 0.5 mg/mL; M0; M13; M15; LAPS; Negative control (PBS). Each solution was evaluated by triplicade. […]
Angiogenesis tests: Digital images analysis was made by using the software Image J plus. The length of vascularization (cm) per CAM area (cm^2) was evaluated before solution addition (basal) and after 24 and 48 hours. Then, the percentage of increase of vascularization was calculated.

Data set [6] deals with VEGF. As to the kind of experiment: VEGF expression in macrophages J774 (real-time PCR). The following applies: Macrophages J774 + LPS 25 ng/mL; Ethosuximide 0.5 mg/mL; 24 hours; FIG. 19. In kind it is cell-based, Murine. How it is done: as §1, §2, §3, §4, §5
Data set [7] deals with Staphylococcus aureus MTCC 96. The following applies: cited from earlier work.
Data set [8] has as its system Pseudomonas aeruginosa. MTCC741. The following applies: cited from earlier work.
The test system of the next data set is highly polymerized DNA. As to the kind of experiment: DNAse activity halos in DNAse agar and conservation in time. In kind it is biochemical. The conditions noted are these: DNAse 0.97 μg/mL alone (C2); DNAse agar, 24 hours at 32° C. An excerpt: DNAse agar is a culture medium that contains highly polymerized DNA and agar as solidifying agents. The DNA is the substratum of the deoxyribonuclease enzyme (DNAse) which hydrolyzes it. This medium allows to detect DNAse activity in different samples and microorganisms. The presence of the enzyme could be visualized adding hydrochloric acid 1N. The hydrolyzed deoxyribonucleic acid presents transparency while the polymerized deoxyribonucleic acid precipitates generating resulting in a opacity on the culture media
Plates preparation: DNAse agar plates were prepared according to manufacturer recommendations (Britania, CABA, Argentina). A volume of 20 mL of the molten media was employed reaching an agar height of 2 mm in the plates. Wells of 5 mm o diameter were made over the agar using a sterile punch. Therefore, the sown volume in each well was π×r^2×h=π×(2.5 mm)^2×2 mm=40 mm=40 μL. […]
Analyzed samples: LAPS, M0, M13, M15, M16 (All gelled with hydroxyethyl cellulose) stored at 25° C. and 4° C. DNAse activity was measured once a week for 6 months. […]
Then, the plates were rested and were observed up to no more than 5 minutes after adding the HCl. DNase activity was measured analyzing the transparent evanescence around the planting zone recording in millimeters the halos diameter.

For `CC(=O)N[C@@H](CS)C(=O)O` [NAC, N-acetyl cysteine], the ICAM-1 expression entry in [1] is given as “concentration dependent inhibition”.

With `O=C(O)CN(CCN(CC(=O)O)CC(=O)O)CC(=O)O` [EDTA, ethylenediaminetetraacetic acid], the Zinc chelation percentage entry in data set [2] is given as “completely chelate”. In addition, the Calcium chelation percentage result in [3] (EDTA 0.25 mg/mL) is reported as “not able to chelate all the available calcium”; in data set [3] (EDTA at 0.50, 0.75 and 1.00 mg/mL, combination of zinc, calcium and magnesium), “completely”.

In the case of `CCC1(C)CC(=O)NC1=O` (stereo not shown) [Ethosuximide, ethosuximide], the “VEGF expression level normalized to GAPDH” value with VEGF [4] and in the data set on VEGF [6] was “induced” in each case. In addition, the “percentage of increase of vascularization (angiogenic effect)” value in data set [5] is “showed angiogenic properties although it was better at 0.5 mg/mL than 3.0 mg/mL”.

With “XYLENTRA®: synthetically engineered antimicrobial peptide of U.S. Pat. No. 10,285,938 B2”, the antibacterial activity result in data set [7] and in [8] was “significant antibacterial activity” each time.

B1: DNAse: rh-Dornase alfa (recombinant human DNase, Roche) diluted in mixing solvent; C2 0.97 μg/mL, C4 3.90 μg/mL (protein, UniProt P24855 23-282, looked up)
Deoxyribonuclease-1: LKIAAFNIQTFGETKMSNATLVSYIVQILSRYDIALVQEVRDSHLTAVGKLLDNLNQDAPDTYHYVVSEPLGRNSYKERYLFVYRPDQVSAVDSYYYDDGCEPCGNDTFNREPAIVRFFSRFTEVREFAIVPLHAAPGDAVAEIDALYDVYLDVQEKWGLEDVMLMGDFNAGCSYVRPSQWSSIRLWTSPTFQWLIPDSADTTATPTHCAYDRIVVAGMLLRGAVVPDSALPFNFQAAYGLSDQLAQAISDHYPVEVMLK
Turning to B1, the “halos of DNAse activity” value in the data set with highly polymerized DNA is 8-10 mm.
